In patent US20260250320A1, “LIPIDATED PEPTIDE INHIBITORS OF INTERLEUKIN-23 RECEPTOR” (Janssen Pharmaceutica NV, priority 2023, published 2026):
Where a SMILES comes first, the peptide text is derived from it. Bridges are numbered along the chain shown (N, C = ends). [ ]: non-standard residue; d: D form. The star is where a group is joined. ξ: configuration not given here. X33 = C[N+](C)(CCNC(=O)CCOCCOCCOCCOCCOCCOCCOCCOCCOCCOCCOCCOCCNC(=O)CC[C@H](CC(=O)CCCCCCCCCCCCCCCCC(=O)O)C(=O)O)CC(=O)*; X30 = C[N+](C)(CCCC(=O)CCOCCOCCOCCOCCOCCOCCNC(=O)CC[C@H](NC(=O)CCCCCCCCCCCCCCCCC(=O)O)C(=O)O)CC(=O)*; Me3N+(CH2)2O(CH2)2O(CH2)2CO = C[N+](C)(C)CCOCCOCCC(=O)*; Trp(7-Me) = Cc1cccc2c(C[C@H](N)C(=O)O)c[nH]c12; 2Nal = N[C@@H](Cc1ccc2ccccc2c1)C(=O)O; AEF = NCCOc1ccc(C[C@H](N)C(=O)O)cc1; Lys(Me) = CNCCCC[C@H](N)C(=O)O; Pen = CC(C)(S)[C@H](N)C(=O)O; ξ3Pal = NC(Cc1cccnc1)C(=O)O; Ac6c = NC1(C(=O)O)CCCCC1; Abu = CC[C@H](N)C(=O)O; X31 = C=C(CN(C)*)N(C)C; Sar = CNCC(=O)O

Columns and labels:
IL-23R = target: T1, IL-23R (Homo sapiens, UniProt Q5VWK5); assay: IL23R Reporter Assay; assay type: cell-based; settings: HEK293 cells containing IL-23R, IL-12Rβ1 and STAT-inducible firefly luciferase reporter; 10 ng/mL IL-23 (EC90); 5 h
T1 construct: HEK293 cells containing IL-23R, IL-12Rβ1 and a firefly luciferase reporter gene driven by a STAT-inducible promoter (Promega); host or cells: HEK293
T1 sequence (Q5VWK5 24-629): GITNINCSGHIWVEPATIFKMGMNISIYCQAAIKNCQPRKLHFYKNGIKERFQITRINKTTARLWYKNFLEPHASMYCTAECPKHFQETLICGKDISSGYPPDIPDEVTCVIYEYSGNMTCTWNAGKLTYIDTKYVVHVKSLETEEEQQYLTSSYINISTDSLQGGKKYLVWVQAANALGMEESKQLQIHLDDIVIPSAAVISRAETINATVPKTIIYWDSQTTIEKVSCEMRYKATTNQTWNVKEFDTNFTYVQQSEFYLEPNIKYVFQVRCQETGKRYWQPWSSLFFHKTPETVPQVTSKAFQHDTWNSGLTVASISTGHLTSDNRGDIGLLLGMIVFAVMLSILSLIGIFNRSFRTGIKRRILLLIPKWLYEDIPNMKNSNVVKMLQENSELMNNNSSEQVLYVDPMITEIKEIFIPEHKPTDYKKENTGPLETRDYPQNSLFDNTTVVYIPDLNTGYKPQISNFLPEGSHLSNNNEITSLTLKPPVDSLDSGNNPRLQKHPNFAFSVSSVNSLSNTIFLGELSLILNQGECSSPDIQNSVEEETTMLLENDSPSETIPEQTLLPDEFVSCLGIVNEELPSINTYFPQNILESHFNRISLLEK
Method in brief: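 IC50 values were fitted with a 4-parameter Hill equation to luciferase signal, scaled between IL-23-only wells (0% inhibition) and 30 μM reference inhibitor (100%). The readout was a STAT-inducible reporter in IL-23R/IL-12Rβ1 HEK293 cells, stimulated with added 10 ng/mL IL-23 (EC90) for 5 h at 37° C and developed with BioGlo.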

[1] = test system: IL-23-stimulated phosphorylated STAT3 in peripheral blood mononuclear cells (PBMCs); assay: PBMC pSTAT3 Assay; assay type: cell-based; settings: PBMCs from healthy donors; 30 min preincubation with peptide; IL-23 5 ng/mL for 30 min; phospho-STAT3 by MSD
Method in brief: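 Phospho-STAT3 quantified by Meso Scale assay in lysates of PBMCs exposed to IL-23 (5 ng/mL, 30 min, 37 °C) after 30 min peptide pretreatment. Cells were cryopreserved donor PBMCs activated 4 days with anti-CD3 plus IL-1β (100 ng/mL) and starved ~4 h; IC50 reported.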

Row | IC50 (IL-23R) | SMILES | IC50 [1]
1 | < 50 nM | CC(=O)N(C)CCCC[C@H](CC(=O)C1(NC(=O)[C@H](Cc2ccc3ccccc3c2)NC(=O)[C@H](Cc2ccc(OCCNC(=O)C[N+](C)(C)CCNC(=O)CCOCCOCCOCCOCCOCCOCCOCCOCCOCCOCCOCCOCCNC(=O)CC[C@H](NC(=O)CCCCCCCCCCCCCCCCCCC(=O)O)C(=O)O)cc2)NC(=O)[C@H]2NC(=O)[C@H](CCCCN(C)C(C)=O)NC(=O)[C@H](Cc3c[nH]c4c(C)cccc34)NC(=O)[C@H]([C@@H](C)O)NC(=O)[C@H](CC(=O)N(C)C)NC(=O)[C@@H](NC(=O)CCOCCOCC[N+](C)(C)C)C(C)(C)SSC2(C)C)CCCCC1)C(=O)C[C@@H](CC(N)=O)C(=O)C[C@@H](Cc1cccnc1)C(=O)N(C)CC(=O)N(C)C [compound 139, cPEG3aCO-Pen(3)-N(N(Me)2)-T-7MeW-K(NMeAc)-Pen(3)-AEF(SP6PEG12gEC20OH)-2Nal-THP-K(NMeAc)-N-3Pya-Sar-CON(Me)2] | < 0.5 nM
2 | 50 to 500 nM | CC(=O)N(C)CCCC[C@@H]1NC(=O)[C@H](CC2=CCc3c(C)cccc32)NC(=O)[C@H]([C@@H](C)O)NC(=O)[C@H](CC(=O)N(C)C)NC(=O)[C@@H](NC(=O)CCOCCOCC[N+](C)(C)C)C(C)(C)SSC(C)(C)C(CN[C@@H](Cc2ccc(OCCNC(=O)C[N+](C)(C)CCNC(=O)CCOCCOCCOCCOCCOCCOCCNC(=O)CC[C@H](CC(=O)CCCCCCCCCCCCCCCCCCC(=O)O)C(=O)O)cc2)C(=O)N[C@@H](Cc2ccc3ccccc3c2)C(=O)NC2(C(=O)N[C@@H](CCCCN(C)C(C)=O)C(=O)N[C@@H](CC(N)=O)C(=O)N[C@@H](Cc3cccnc3)C(C)N(C)CC(=O)N(C)C)CCOCC2)NC1=O (stereo partly drawn) [compound 140, cPEG3aCO-Pen(3)-N(N(Me)2)-T-7MeW-K(NMeAc)-Pen(3)-AEF(SP6PEG6gEC20OH)-2Nal-THP-K(NMeAc)-N-3Pya-Sar-CON(Me)2] | < 0.5 nM
3 | < 50 nM | CC(=O)N(C)CCCC[C@@H]1NC(=O)[C@H](Cc2c[nH]c3c(C)cccc23)NC(=O)[C@H]([C@@H](C)O)NC(=O)[C@H](CC(=O)N(C)C)NC(=O)[C@@H](NC(=O)CCOCCOCC[N+](C)(C)C)C(C)(C)SSC(C)(C)[C@@H](C(=O)N[C@@H](Cc2ccc(OCCNC(=O)C[N+](C)(C)CCNC(=O)CCOCCOCCOCCOCCOCCOCCOCCOCCOCCOCCOCCOCCNC(=O)CC[C@H](CC(=O)CCCCCCCCCCCCCCCCC(=O)O)C(=O)O)cc2)C(=O)N[C@@H](Cc2ccc3ccccc3c2)C(=O)NC2(C(=O)N[C@@H](CCCCN(C)C(C)=O)C(=O)N[C@@H](CC(N)=O)C(=O)NC(Cc3cccnc3)C(=O)N(C)CC(=O)N(C)C)CCCCC2)NC1=O (stereo partly drawn) [compound 141, cPEG3aCO-Pen(3)-N(N(Me)2)-T-7MeW-K(NMeAc)-Pen(3)-AEF(SP6PEG12gEC18OH)-2Nal-THP-K(NMeAc)-N-3Pya-Sar-CON(Me)2] ({Me3N+(CH2)2O(CH2)2O(CH2)2CO}-[Pen]D(NMe2)T[Trp(7-Me)][Lys(Me)](Ac)[Pen][AEF](X33)[2Nal][Ac6c][Lys(Me)](Ac)N[ξ3Pal][Sar]-NMe2; disulfide 1-6) | < 0.5 nM
4 | < 50 nM | C=C(CN(C)C(=O)C(Cc1cccnc1)NC(=O)[C@H](CC(N)=O)NC(=O)[C@H](CCCCN(C)C(C)=O)NC(=O)C1(NC(=O)[C@H](Cc2ccc3ccccc3c2)NC(=O)[C@H](Cc2ccc(OCCNC(=O)C[N+](C)(C)CCCC(=O)CCOCCOCCOCCOCCOCCOCCNC(=O)CC[C@H](NC(=O)CCCCCCCCCCCCCCCCC(=O)O)C(=O)O)cc2)NC(=O)[C@H]2NC(=O)[C@H](CCCCN(C)C(C)=O)NC(=O)[C@H](Cc3c[nH]c4ccccc34)NC(=O)[C@H]([C@@H](C)O)NC(=O)[C@H](CC)NC(=O)[C@@H](N)C(C)(C)SSC2(C)C)CCCCC1)N(C)C (stereo partly drawn) [compound 142, cPEG3aCO-Pen(3)-N(N(Me)2)-T-7MeW-K(NMeAc)-Pen(3)-AEF(SP6PEG6gEC18OH)-2Nal-THP-K(NMeAc)-N-3Pya-Sar-CON(Me)2] (H-[Pen][Abu]TW[Lys(Me)](Ac)[Pen][AEF](X30)[2Nal][Ac6c][Lys(Me)](Ac)N[ξ3Pal]-X31; disulfide 1-6) | < 0.5 nM
